# Assay results published in patent US20040152708A1, “Trans-9,10-dehydroepothilone C and D, analogs thereof and methods of making the same” (priority 2002, published 2004).
# pIC50: −log10 of the molar value.
# What was measured:
# [1] = tested on: Human breast carcinoma cell line MCF-7; assay: SRB cytotoxicity assay, MCF-7; format: cell-based; settings: Homo sapiens, MCF7, 72 h; Table 1; 3 days, SRB; read-out: IC50 MCF-7
# Description: (§1) Compounds of the invention may be screened for cytotoxicity using conventional assays well known to those skilled in the art. For example, cytotoxicity of the compounds may be determined by the SRB assay as disclosed in Skehan et al., J. Natl. Cancer Inst. 82:1107-1112 (1990), which is incorporated herein by reference. In the SRB assay, the following cultured cells are trypsinized, counted and diluted to the following concentrations per 100 μl with growth medium: MCF-7, 5000; NCI/ADR-Res, 7500; NCI-H460, 5000; A549, 5000; Skov3, 7500; and SF-268, 7500. The cells are seeded at 100 μl/well in 96-well microtiter plates. Twenty-four hours later, 100 μl of a test epothilone compound of the invention (ranging in concentration from 1000 nM to 0.001 nM diluted in growth medium) is added to each well. After incubation, with the compound for a period of days, the cells are fixed with 100 μl of 10% trichloroacetic acid (“TCA”) at 4 degrees for 1 hour, and stained with 0.2% sulforhodamine B (SRB)/1% acetic acid, and the bound SRB is then extracted with 200 μl of 10 mM Tris base. The amount of bound dye is determined by OD 515 nm, which correlates to the total cellular protein contents. The data is analyzed using standard statistical methodologies (such as those available with the software sold as KALEIDA GRAPH® by Synergy Software of Reading, Pa.) and the IC50s are calculated.
# (§2) Human breast carcinoma cell line MCF-7, multi-drug resistant breast carcinoma cell line NCI/ADR, were obtained from the National Cancer Institute. Human non-small cell lung cancer cell line A549 and human ovarian cancer cell line SKOV-3 were obtained from American Type Culture Collection (Manassas, Va.). All cell lines were maintained in RPMI-1640 medium (Gibco/BRL, Rockville, Md.) supplemented with 2 mM L-glutamine, 25 mM HEPES and 10% FBS (Hyclone, Logan, Utah). Cells were maintained in a humidified incubator at 37° C. in 5% CO2.
# (§3) Tumor cells were seeded in 100 μl at 5000 (MCF-7), 7500 (NCI/ADR), 5000 (A549) and 7500 (SKOV3) cells per well in 96-well plates. Cells were allowed to adhere for 24 hours. Each compound ranging from 0.001 to 1000 nM in 100 μl was added to cells in duplicate wells. After 3 days, cells were fixed at 4° C. for 1 hour with 10% trichloroacetic acid and then stained with 0.2% sulforhodamine B (SRB)/1% acetic acid for 20 minutes at room temperature. The unbound dye was rinsed away with 1% acetic acid, and the bounded SRB was then extracted with 200 μl of 10 mM Tris base. The absorbance was measured at 515 nm using a 96-well microtiter plate reader (Spectra Max 250, Molecular Devices). The IC50 values were calculated using a KaleidaGraph program. The experiments were performed twice.
# [2] = Plasma protein binding (ultrafiltration); format: in vitro ADME; settings: mouse or human plasma (species not given), 37° C.
# Description: Plasma protein binding studies were performed as follows. Compounds were dissolved in DMSO, then diluted into either fresh or thawed samples of mouse or human plasma and incubated at 37° C. Time points of 50 μL were mixed with 100 μl of acetonitrile and centrifuged at ˜14000 rpm for 3 minutes. A 100 μL aliquot was removed from the supernatant and set aside for analysis to indicate compound in the total fraction. The remaining supernatant was transferred onto a Microcon ultrafiltration device fitted with a YM10 membrane and centrifuged to separate protein-bound material. A 50 μL aliquot of the protein-free filtrate was mixed with 100 μL of acetonitrile, centrifuged at ˜14000 rpm for 3 minutes, then 100 μL of the supernatant was collected and analyzed to determine the amount of compound not protein bound. The amount of compound in the total sample and in the protein-free fraction were determined by HPLC analysis against authentic standards.
# CYP3A4 = target: T1, CYP3A4 (Homo sapiens, UniProt P08684); assay: Cytochrome P450 inhibition (BD GenTest kit, BFC substrate), CYP3A4; format: in vitro ADME
# T1 construct: purchased BD GenTest, Woburn, Mass
# T1 sequence (P08684 whole entry): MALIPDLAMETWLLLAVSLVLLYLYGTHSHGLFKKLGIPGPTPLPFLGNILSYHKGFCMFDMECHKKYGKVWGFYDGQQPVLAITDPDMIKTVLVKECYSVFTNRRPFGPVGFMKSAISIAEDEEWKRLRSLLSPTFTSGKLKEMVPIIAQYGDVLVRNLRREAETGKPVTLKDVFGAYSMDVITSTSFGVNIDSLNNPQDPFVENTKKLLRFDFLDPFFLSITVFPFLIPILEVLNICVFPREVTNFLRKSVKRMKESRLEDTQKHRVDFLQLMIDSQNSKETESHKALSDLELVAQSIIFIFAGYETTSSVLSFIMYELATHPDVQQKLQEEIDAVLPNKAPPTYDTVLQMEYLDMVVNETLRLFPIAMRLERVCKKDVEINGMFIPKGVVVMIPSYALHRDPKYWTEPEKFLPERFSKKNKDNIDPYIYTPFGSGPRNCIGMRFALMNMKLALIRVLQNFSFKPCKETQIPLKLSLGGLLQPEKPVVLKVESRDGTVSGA
# From the text: Following the procedure of Examples 39 (when R=methyl) and 42 (when R=CF3), the additional compounds shown in Table 2 were made by replacing (2-(tert-butyldimethyl-silyloxy)-methylthiazol-4-yl)methyltri-n-butyl-phosphonium chloride with the corresponding phosphonium chloride. Cytotoxicity data (Table 2) was obtained as described in Example 48. Cytochrome P450 inhibition data (Table 3) was obtained using the initial rate method against BFC substrate.
# Cytochrome P450 inhibition measurements were performed using a commercially-available kit (BD GenTest, Woburn, Mass.), using BFC as substrate against CYP3A4.
# [3] = Half-life in mouse plasma; settings: fresh mouse plasma
# Description: […] At Time Zero, aliquotted 75 μl from each sample and added 150 μl of acetonitrile. Centrifuged the white precipitate at 13500 rpm for 3 minutes. Transferred all the clear supernatant into another microcentrifuge tube and repeated the centrifuging step (13500 rpm/3 min). Carefully pipetted 150 μl of the clear supernatant into labeled HPLC sample tubes and tried to avoid pipetting any protein pellets. The samples were analyzed by HPLC to measure remaining compound at each time point by comparison with authentic standards.
# CYP2C19 = target: T2, CYP2C19 (Homo sapiens, UniProt P33261); assay: Cytochrome P450 inhibition, CYP2C19; format: in vitro ADME; settings: human
# T2 construct: purchased BD GenTest, Woburn, Mass
# T2 sequence (P33261 whole entry): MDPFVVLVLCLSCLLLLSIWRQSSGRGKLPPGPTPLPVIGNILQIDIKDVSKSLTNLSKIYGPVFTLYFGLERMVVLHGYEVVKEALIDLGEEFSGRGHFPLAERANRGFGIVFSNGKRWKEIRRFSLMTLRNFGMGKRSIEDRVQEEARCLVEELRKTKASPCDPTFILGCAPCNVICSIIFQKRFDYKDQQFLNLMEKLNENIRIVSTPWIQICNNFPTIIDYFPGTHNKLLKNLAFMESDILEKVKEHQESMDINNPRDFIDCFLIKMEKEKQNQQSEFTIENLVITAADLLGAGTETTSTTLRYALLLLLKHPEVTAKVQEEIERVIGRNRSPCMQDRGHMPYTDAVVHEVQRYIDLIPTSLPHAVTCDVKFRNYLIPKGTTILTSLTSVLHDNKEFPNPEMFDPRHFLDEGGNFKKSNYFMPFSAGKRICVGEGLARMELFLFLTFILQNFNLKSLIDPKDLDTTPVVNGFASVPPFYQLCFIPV
# [4] = tested on: human ovarian cancer cell line SKOV-3; assay: SRB cytotoxicity assay, SKOV3; format: cell-based; settings: Homo sapiens, SK-OV-3, 72 h; Table 1; 3 days, SRB; read-out: IC50 SKOV3
# Description: as §1, §2, §3
# [5] = tested on: Human non-small cell lung cancer cell line A549; assay: SRB cytotoxicity assay, A549; format: cell-based; settings: Homo sapiens, A549, 72 h; Table 1; 3 days, SRB; read-out: IC50 A549
# Description: as §1, §2, §3
# [6] = Compound solubility in phosphate-buffered saline; format: physicochemical; settings: aqueous buffer, kinetic from dmso stock; 5 μL of 20 mg/mL DMSO stock in 95 μL phosphate-buffered saline, 0.45 micron filter, HPLC
# Description: Compound solubility was determined as follows: 5 μL of stock solution (at 20 mg/mL in DMSO) was added to 95 μL of phosphate-buffered saline. After being vortexed for about 10 seconds, the solution/suspension was filtered through a 0.45 micron filter and the amount of analyte was quantitated by HPLC. Solubilities (mg/mL) determined were as follows: epothilone D, <0.06; trans-9,10-dehydroepothilone D, <0.06; 21-OH-26-F3-trans-9,10-dehydroepothilone D, 0.1; 21-amino-trans-9,10-dehydroepothilone D, >0.6; 21-amino-26-F3-trans-9,10-dehydroepothilone D, >0.6; 26-F3-trans-9,10-dehydroepothilone D, <0.06; 21-OH-trans-9,10-dehydroepothilone D, 0.1; KOSN 1635, <0.02; KOSN 1632, 0.12.
# CYP2C9 = target: T3, CYP2C9 (Homo sapiens, UniProt P11712); assay: Cytochrome P450 inhibition, CYP2C9; format: in vitro ADME; settings: human
# T3 construct: purchased BD GenTest, Woburn, Mass
# T3 sequence (P11712 whole entry): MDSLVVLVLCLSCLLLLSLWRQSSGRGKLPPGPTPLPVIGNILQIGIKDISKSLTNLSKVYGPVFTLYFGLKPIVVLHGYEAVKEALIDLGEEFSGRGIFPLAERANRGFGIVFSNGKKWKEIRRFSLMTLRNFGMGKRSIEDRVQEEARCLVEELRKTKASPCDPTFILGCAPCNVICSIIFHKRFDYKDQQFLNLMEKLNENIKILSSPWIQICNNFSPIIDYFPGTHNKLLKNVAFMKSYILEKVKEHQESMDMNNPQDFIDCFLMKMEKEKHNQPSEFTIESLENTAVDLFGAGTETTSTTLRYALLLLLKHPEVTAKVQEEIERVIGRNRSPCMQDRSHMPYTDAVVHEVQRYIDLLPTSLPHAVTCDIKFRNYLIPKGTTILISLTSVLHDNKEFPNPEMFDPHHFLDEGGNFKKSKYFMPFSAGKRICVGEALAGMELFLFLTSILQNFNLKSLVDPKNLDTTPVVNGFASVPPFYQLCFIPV
# [7] = Half-life in human plasma; settings: fresh human plasma
# Description: Half-lives of compounds in fresh mouse and human plasma were determined by dissolving the compounds in DMSO and adding aliquots to samples of mouse or human plasma. At Time Zero, aliquotted 75 μl from each sample and added 150 μl of acetonitrile. Centrifuged the white precipitate at 13500 rpm for 3 minutes. Transferred all the clear supernatant into another microcentrifuge tube and repeated the centrifuging step (13500 rpm/3 min). Carefully pipetted 150 μl of the clear supernatant into labeled HPLC sample tubes and tried to avoid pipetting any protein pellets. The samples were analyzed by HPLC to measure remaining compound at each time point by comparison with authentic standards.
# [8] = tested on: multi-drug resistant breast carcinoma cell line NCI/ADR; assay: SRB cytotoxicity assay, NCI/ADR; format: cell-based, human; settings: Homo sapiens, NCI/ADR-RES, 72 h; Table 1; 3 days, SRB; read-out: IC50 NCI/ADR
# Description: as §1, §2, §3
SMILES,pIC50 [1],percentage of compound protein bound [2] [%],pIC50 (CYP3A4),half-life [3] [h],pIC50 (CYP2C19),pIC50 [4],pIC50 [5],solubility [6] [µg/mL],pIC50 (CYP2C9),half-life [7] [h],pIC50 [8]
"C/C1=C/C[C@@H](/C(C)=C/c2csc(CO)n2)OC(=O)C[C@H](O)C(C)(C)C(=O)[C@H](C)[C@@H](O)[C@@H](C)/C=C/C1 [21-OH 9,10-dehydroepothilone D, 21-hydroxy-9,10-dehydro-epothilone D]",8.64,94.2,6.10,17.6,5.25,8.24,8.42,100,4.66,> 24,7.85
"C/C(=C\c1csc(CO)n1)[C@@H]1C/C=C(/C(F)(F)F)C/C=C/[C@H](C)[C@H](O)[C@@H](C)C(=O)C(C)(C)[C@@H](O)CC(=O)O1 [21-hydroxy-9,10-dehydro-26-trifluoroepothilone D]",8.44,92.8,6.00,6.32,4.69,8.10,8.21,100,4.76,> 24,7.19
"C/C1=C/C[C@@H](/C(C)=C/c2csc(C)n2)OC(=O)C[C@H](O)C(C)(C)C(=O)[C@H](C)[C@@H](O)[C@@H](C)CCC1 [Epothilone D, Desoxyepothilone B, reference compound]",8.17,98.5,5.62,0.817,5.47 to 5.80,7.41,7.60,< 60,4.92 to 5.05,> 24,7.64
"C/C1=C/C[C@@H](/C(C)=C/c2ccccn2)OC(=O)C[C@H](O)C(C)(C)C(=O)[C@H](C)[C@@H](O)[C@@H](C)/C=C/C1 [KOSN 1632, 17-des(2-methyl-4-thiazolyl)-17-(2-pyridyl)-9,10-dehydropeothilone D]",9.06,89.4,5.60,0.467,5.52,8.36,8.48,120,4.82,> 24,8.34
"C/C1=C/C[C@@H](/C(C)=C/c2nc3ccccc3s2)OC(=O)C[C@H](O)C(C)(C)C(=O)[C@H](C)[C@@H](O)[C@@H](C)/C=C/C1 [KOSN 1635, 17-des(2-methyl-4-thiazolyl)-17-(2-benzothiazolyl)-9,10-dehydropeothilone D]",8.96,99.7,5.51,0.967,5.49,8.47,8.38,< 20,5.39,> 24,8.25
